Source: ChEMBL document CHEMBL1134110, “Anticonvulsant effects of new morphinan derivatives” (2001)

Assays:
Format in all cases: functional
Rattus norvegicus [1] = assay: The compound was tested for anticonvulsive activity expressed as seizure score after 4 hr of injection of kainic acid (10 mg/kg) and the drug at the dose of 40 mg/Kg in 15 rats
Rattus norvegicus [2] = assay: The compound was examined for circling behavior (marginal activity) using automated videotracking system 30 min after intraperitoneal injection at the dose of 40 mg/Kg in 12 rats
Rattus norvegicus [3] = assay: The compound was examined for circling behavior (marginal activity) using automated videotracking system 30 min after intraperitoneal injection at the dose of 20 mg/Kg in 12 rats
Rattus norvegicus [4] = assay: Effect was expressed as mortality after injection of kainic acid (10 mg/kg) and the drug at the dose of 20 mg/Kg after 48 hr out of 19 animals
Rattus norvegicus [5] = assay: The compound was tested for anticonvulsive activity expressed as seizure score after 4 hr of injection of kainic acid (10 mg/kg) and the drug at the dose of 20 mg/Kg in 15 rats
Rattus norvegicus [6] = assay: Effect was expressed as mortality after injection of kainic acid (10 mg/kg) and the drug at the dose of 40 mg/Kg after 48 hr
Rattus norvegicus [7] = assay: The compound was tested for anticonvulsive activity expressed as seizure score after 4 hr of injection of kainic acid (10 mg/kg) in 15 rats
Rattus norvegicus [8] = assay: The compound was examined for circling behavior (marginal activity) using automated videotracking system 30 min after intraperitoneal injection at the dose of 5 mg/Kg in 12 rats

SMILES | Seizure score (Rattus norvegicus [1]) | Absolute turn angular/3 min (Rattus norvegicus [2]) | Absolute turn angular/3 min (Rattus norvegicus [3]) | Mortality (Rattus norvegicus [4]) | Seizure score (Rattus norvegicus [5]) | Mortality (Rattus norvegicus [6]) | Seizure score (Rattus norvegicus [7]) | Absolute turn angular/3 min (Rattus norvegicus [8])
COc1ccc2c(c1)C13CCCCC1C(C2)NCC3 (configuration not stated) | 2 | 258 | 186 | 4 | 2.4 | 4 | – | –
CN1CCC23CCCCC2C1Cc1ccc(OCC2CC2)cc13 (configuration not stated) | 1.3 | 202 | 160 | 3 | 1.8 | 2 | – | –
Oc1ccc2c(c1)C13CCCCC1C(C2)NCC3 (configuration not stated) | 2.1 | 262 | 194 | 5 | 2.5 | 4 | – | –
C=CCN1CCC23CCCCC2C1Cc1ccc(OC)cc13 (configuration not stated) | 2.2 | 282 | 224 | 6 | 2.9 | 6 | – | –
C=C(C)[C@H]1CN[C@H](C(=O)O)[C@H]1CC(=O)O [KAINIC ACID] | – | – | – | – | – | – | 4.2 | –
c1ccc(C2(N3CCCCC3)CCCCC2)cc1 [PHENCYCLIDINE] | – | – | – | – | – | – | – | 420
C=CCOc1ccc2c(c1)C13CCCCC1C(C2)NCC3 (configuration not stated) | 1 | 184 | 152 | 11 | 1.5 | 1 | – | –
C=CCN1CCC23CCCCC2C1Cc1ccc(OCC2CC2)cc13 (configuration not stated) | 2.2 | 242 | 175 | 5 | 2.7 | 4 | – | –
COc1ccc2c(c1)C13CCCCC1C(C2)N(C)CC3 (stereo not drawn) [RACEMETHORPHAN] | 1.4 | 265 | 192 | 4 | 2.2 | 2 | – | –
CN1CC[C@]23CCCC[C@H]2[C@H]1Cc1ccc(O)cc13 [LEVORPHANOL] | 1.8 | 384 | 310 | 5 | 2.8 | 4 | – | –
C=CCOc1ccc2c(c1)C13CCCCC1C(C2)N(CC1CC1)CC3 (configuration not stated) | 2 | 250 | 172 | 4 | 2.8 | 4 | – | –
C=CCOc1ccc2c(c1)C13CCCCC1C(C2)N(C)CC3 (configuration not stated) | 1.5 | 219 | 168 | 3 | 1.9 | 3 | – | –
